Among the data in ChEMBL document CHEMBL1129234, “Synthesis of phosphorus-containing amino acid analogs as inhibitors of nitric oxide synthase” (Bioorg Med Chem Lett, 1996) are IC50 values, retold here.

Assay [1] deals with T1, Nitric oxide synthase, inducible (Mus musculus, UniProt P29477).
T1 sequence (P29477 whole entry): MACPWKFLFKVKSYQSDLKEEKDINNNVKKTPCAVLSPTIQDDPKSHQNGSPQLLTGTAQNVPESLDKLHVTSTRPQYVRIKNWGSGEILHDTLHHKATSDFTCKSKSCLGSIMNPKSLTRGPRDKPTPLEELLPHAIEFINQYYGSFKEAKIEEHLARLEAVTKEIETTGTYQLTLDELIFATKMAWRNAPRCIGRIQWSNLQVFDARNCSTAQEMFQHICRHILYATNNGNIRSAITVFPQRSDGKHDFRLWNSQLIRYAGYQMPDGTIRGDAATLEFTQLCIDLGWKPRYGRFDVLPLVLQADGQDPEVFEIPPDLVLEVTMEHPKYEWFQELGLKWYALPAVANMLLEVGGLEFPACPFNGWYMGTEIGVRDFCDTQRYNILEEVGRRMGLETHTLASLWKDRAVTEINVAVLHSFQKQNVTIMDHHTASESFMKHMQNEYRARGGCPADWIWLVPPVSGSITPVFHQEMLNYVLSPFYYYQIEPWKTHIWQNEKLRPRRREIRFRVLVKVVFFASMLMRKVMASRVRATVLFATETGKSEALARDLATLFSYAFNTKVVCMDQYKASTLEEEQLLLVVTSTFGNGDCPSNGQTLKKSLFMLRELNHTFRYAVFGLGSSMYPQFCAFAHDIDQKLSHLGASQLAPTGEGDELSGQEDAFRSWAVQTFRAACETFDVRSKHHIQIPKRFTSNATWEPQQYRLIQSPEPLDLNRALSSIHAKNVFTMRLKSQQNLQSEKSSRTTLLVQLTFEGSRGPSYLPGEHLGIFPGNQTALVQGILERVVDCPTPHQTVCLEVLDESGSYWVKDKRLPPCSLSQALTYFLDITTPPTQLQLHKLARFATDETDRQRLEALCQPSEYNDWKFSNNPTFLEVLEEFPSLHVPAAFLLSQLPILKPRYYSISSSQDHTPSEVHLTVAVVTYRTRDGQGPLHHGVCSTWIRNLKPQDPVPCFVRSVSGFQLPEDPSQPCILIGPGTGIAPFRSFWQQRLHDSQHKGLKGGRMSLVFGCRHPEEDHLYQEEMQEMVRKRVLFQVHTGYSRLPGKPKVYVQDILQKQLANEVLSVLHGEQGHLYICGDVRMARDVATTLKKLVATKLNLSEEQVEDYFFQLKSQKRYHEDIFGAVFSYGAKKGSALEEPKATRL
Kind of assay: Compound was tested in vitro for inhibitory activity against inducible nitric oxide synthase.

The target of another assay is Nitric oxide synthase 1 (Rattus norvegicus, UniProt P29476). Kind of assay: Compound was tested in vitro for inhibitory activity against nNOS (constitutive isoform found in neurons).
Sequence of Nitric oxide synthase 1 (P29476 whole entry, canonical isoform): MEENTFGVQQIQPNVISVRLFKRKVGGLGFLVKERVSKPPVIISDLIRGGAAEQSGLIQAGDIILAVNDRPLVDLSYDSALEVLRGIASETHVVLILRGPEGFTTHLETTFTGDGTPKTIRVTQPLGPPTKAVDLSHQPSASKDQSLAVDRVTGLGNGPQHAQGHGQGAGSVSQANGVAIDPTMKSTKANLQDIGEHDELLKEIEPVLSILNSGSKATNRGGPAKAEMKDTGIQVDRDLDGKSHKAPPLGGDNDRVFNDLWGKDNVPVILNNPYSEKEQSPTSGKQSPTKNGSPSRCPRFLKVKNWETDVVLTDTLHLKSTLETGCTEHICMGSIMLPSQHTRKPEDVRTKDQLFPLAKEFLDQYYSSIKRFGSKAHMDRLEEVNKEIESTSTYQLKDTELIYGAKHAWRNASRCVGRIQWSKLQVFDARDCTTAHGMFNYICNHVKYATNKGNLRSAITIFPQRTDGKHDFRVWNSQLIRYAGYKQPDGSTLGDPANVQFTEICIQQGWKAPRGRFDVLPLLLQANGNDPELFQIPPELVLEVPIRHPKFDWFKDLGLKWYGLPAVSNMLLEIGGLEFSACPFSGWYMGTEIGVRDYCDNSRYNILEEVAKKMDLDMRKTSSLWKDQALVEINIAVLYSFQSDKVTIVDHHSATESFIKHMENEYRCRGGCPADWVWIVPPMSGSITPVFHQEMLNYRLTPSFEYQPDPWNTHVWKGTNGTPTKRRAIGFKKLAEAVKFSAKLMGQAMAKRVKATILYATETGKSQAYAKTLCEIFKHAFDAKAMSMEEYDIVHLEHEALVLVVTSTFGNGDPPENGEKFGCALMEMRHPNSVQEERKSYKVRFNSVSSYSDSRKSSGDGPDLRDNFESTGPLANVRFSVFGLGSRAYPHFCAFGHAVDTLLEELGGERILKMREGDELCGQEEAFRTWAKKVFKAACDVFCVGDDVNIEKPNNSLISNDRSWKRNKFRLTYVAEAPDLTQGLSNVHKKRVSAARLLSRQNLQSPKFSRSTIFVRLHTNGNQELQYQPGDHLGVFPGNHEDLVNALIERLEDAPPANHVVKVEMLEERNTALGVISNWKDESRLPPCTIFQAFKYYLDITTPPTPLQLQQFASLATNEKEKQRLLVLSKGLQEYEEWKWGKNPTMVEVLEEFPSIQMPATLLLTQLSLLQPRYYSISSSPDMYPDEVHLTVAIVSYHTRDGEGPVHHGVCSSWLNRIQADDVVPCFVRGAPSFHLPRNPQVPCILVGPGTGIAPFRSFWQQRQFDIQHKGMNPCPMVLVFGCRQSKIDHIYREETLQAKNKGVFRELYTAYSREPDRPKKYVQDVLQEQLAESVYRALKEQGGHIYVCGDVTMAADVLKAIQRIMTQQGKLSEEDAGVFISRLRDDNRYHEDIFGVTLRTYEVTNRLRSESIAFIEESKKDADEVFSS

One may read the IC50 as the concentration needed to halve the response being measured.

In the case of `N=C(N)NCCCC(N)P(=O)(O)O` (stereo not drawn), the concentration for half-maximal inhibition (IC50) (in assay [1]; against Nitric oxide synthase 1) was more than 100 µM throughout.
In the case of `CNC(=N)NCCCC(N)[PH](=O)O` (stereo not drawn), the IC50 in assay [1] was more than 100 µM; against Nitric oxide synthase 1, 100 µM.
The like results for `N/C(=N/CCCC(N)P(=O)(O)O)N[N+](=O)[O-]` (stereo not drawn) were, in that order, more than 100 µM and more than 100 µM.
For `CNC(=N)NCCCC(N)P(=O)(O)O` (stereo not drawn) the same measures were more than 100 µM and more than 100 µM.
For `N/C(=N/CCCC(N)[PH](=O)O)N[N+](=O)[O-]` (stereo not drawn) the same measures were more than 100 µM and 45 µM.
Consider `N=C(NCCC[C@H](N)C(=O)O)N[N+](=O)[O-]` [NITROARGININE], for which the 50% inhibitory concentration (IC50) in assay [1] was found to be 10 µM. That is a double-digit micromolar value.
Take `NC(N)=NCCCC(N)[PH](=O)O` (stereo not drawn): the IC50 (in assay [1]; against Nitric oxide synthase 1) was more than 100 µM each time.
